Measurements as given in article PMC13040083, “Single-molecule dynamics reveal ATP binding alone powers substrate translocation by an ABC transporter” (Nature Communications, 2026).

Key:
TmrA^EQB (TmrA^E523QB) = assay: Single-molecule (smFRET) peptide translocation by slow-turnover TmrA^EQB in liposomes; conditions: 10 µM valinomycin, K+ buffer, Mg-ATP 3 mM, peptide 200 µM, 45 °C 5 min; and control at 30 °C
Protocol: For single-molecule experiments, a protein-to-lipid ratio (w/w) of 1:10,000 and an OppA-to-liposome ratio of 0.2 molecules per liposome were used. For ensemble transport assays, a protein-to-lipid ratio (w/w) of 1:20 was applied. Extruded LUVs were destabilized by incubation with 0.3% (v/v) Triton X-100 (TX-100) for 30 min. TmrAB and OppA were then added to the detergent-destabilized liposomes and incubated for 30 min at 8 °C under gentle rotation. Detergent removal was performed gradually using sequential additions of polystyrene Bio-Beads SM-2 (Bio-Rad): two incubations at 40 mg/mL (1 h and overnight), followed by two incubations at 80 mg/mL (1 h each). […]
Single-molecule FRET experiments were conducted using a flow chamber system to immobilize liposomes and transporters in an uptake-competent orientation. […] Laser powers were set to 0.8 mW/cm^2 (532 nm excitation) and 0.9 mW/cm^2 (640 nm excitation), with data recorded in 1-min intervals.
Single-molecule FRET (smFRET) measurements were performed using ALEX, allowing the assignment of detected photons based on both excitation and emission wavelength. […] From these signals, FRET efficiency (E) and stoichiometry (S) were calculated and FRET traces extracted using NanoImager software (ONI Nanoimager Development Build) and analyzed with deepFRET[56]. […] Dynamic smFRET traces were further analyzed via HMM by deepFRET. […]

TmrAB^WT [1] = assay: LC-MS-based peptide transport assay; assay type: biochemical, Thermus thermophilus; conditions: Mg-ATP 3 mM, ATP regeneration system, 45 °C 45 min, n = 3 technical replicates
Protocol: For single-molecule experiments, a protein-to-lipid ratio (w/w) of 1:10,000 and an OppA-to-liposome ratio of 0.2 molecules per liposome were used. For ensemble transport assays, a protein-to-lipid ratio (w/w) of 1:20 was applied. Extruded LUVs were destabilized by incubation with 0.3% (v/v) Triton X-100 (TX-100) for 30 min. TmrAB and OppA were then added to the detergent-destabilized liposomes and incubated for 30 min at 8 °C under gentle rotation. Detergent removal was performed gradually using sequential additions of polystyrene Bio-Beads SM-2 (Bio-Rad): two incubations at 40 mg/mL (1 h and overnight), followed by two incubations at 80 mg/mL (1 h each). Finally, proteoliposomes were harvested by ultracentrifugation (100,000 × g, 30 min, 4 °C) and resuspended in the appropriate buffer.
Reactions were stopped with ice-cold liposome buffer containing 10 mM EDTA. Samples were ultracentrifuged (450,000 × g, 30 min, 4 °C), and pellets were resuspended in 200 µL of 100 mM Na2CO3 (pH 11.5), followed by a second ultracentrifugation under the same conditions. […] A final ultracentrifugation (450,000 × g, 1.5 h, 4 °C) was performed before LC-MS analysis using a Waters BioAccord system (UNIFY 3.1.0). […] Quantification was based on total ion chromatogram peak areas at the peptide-specific retention times.

TmrAB^WT [2] = assay: Filter plate-based peptide transport assay; assay type: biochemical, Thermus thermophilus; conditions: C4F 10 µM
TmrAB^WT [3] = assay: Single-liposome transport monitored by flow cytometry; assay type: biochemical, Thermus thermophilus; conditions: flow cytometry single-liposome assay

## CC(C)[C@@H]1NC(=O)[C@H](C)OC(=O)[C@@H](C(C)C)NC(=O)[C@@H](C(C)C)OC(=O)[C@H](C(C)C)NC(=O)[C@H](C)OC(=O)[C@@H](C(C)C)NC(=O)[C@@H](C(C)C)OC(=O)[C@H](C(C)C)NC(=O)[C@H](C)OC(=O)[C@@H](C(C)C)NC(=O)[C@@H](C(C)C)OC1=O [valinomycin]
TmrA^EQB (TmrA^E523QB)
  effect of dissipating membrane potential on translocation: excluded effects from a transmembrane potential

## GIINTLEEL [9mer peptide]
TmrAB^WT [1]
  ATP-dependent transport, in words: signiﬁcant ATP-dependent transport

## RRYC(Fluorescein)KSTEL [C4F, RRYC^FLKSTEL, fluorescein-labeled peptide RRYC^FLKSTEL]
TmrAB^WT [1]
  ATP-dependent transport, in words: signiﬁcant ATP-dependent transport
TmrAB^WT [2]; ATP-EDTA 3 mM
  peptide transport, in words: no transport above ADP-EDTA (3 mM) background
TmrAB^WT [2]; Mg-ATP 3 mM
  peptide transport, in words: robust transport

B1: Nb9F10: conformation-independent nanobody tethered via PEG11-biotin (antibody, V domains shown)
VH: QLQLVESGGGLVQPGDSLRLSCAVSGSALDYNAIGWFRQAPGKEREGVACISKITGNTAYADCVKGRFTISRDNAKNTVHLQMNSLKPEDTAVYYCATVTAVLLPGRCVPGKYWGQGTPVTVSS
TmrAB^WT [3]
  effect of nanobody binding on TmrAB transport activity: did not alter transport activity
